The source of these data is PubChem BioAssay AID743175 (Broad Institute, 2013).

Activity calls are given as the source filed them. How the calls were made is not given here.

The first test is described as follows: inhibitor activity on non-replicating M. tuberculosis, dose response, plate reader, dry powder (AID 743175). As to conditions: Mycobacterium tuberculosis non-replicating, growth inhibition plate reader; at 23.5 µM (top of the series).
Take `C[C@H](C(=O)N(C)C[C@@H]1OCc2ccccc2-c2ccccc2C(=O)N([C@H](C)CO)C[C@H]1C)c1ccccc1`: the activity change, negative = inhibition was -2.02% (inactive).
On the same count and under the same terms, under `C[C@@H]1CN([C@@H](C)CO)C(=O)c2ccccc2-c2ccccc2CO[C@H]1CN(C)C(=O)[C@H](C)c1ccccc1` stands 6.24% (inactive); under `Cc1noc(C)c1NC(=O)Nc1ccc2c(c1)C(=O)N(C)[C@@H]1CC[C@@H](CC(=O)NCc3ccc(Cl)cc3)O[C@H]1CO2`, -4.47% (inactive); under `CNC[C@H]1OCCCC[C@@H](C)Oc2ccc(NC(=O)CCCN(C)C)cc2C(=O)N([C@H](C)CO)C[C@@H]1C`, 0.469% (inactive).
As for `Cc1noc(C)c1NC(=O)Nc1ccc2c(c1)C(=O)N(C)[C@@H]1CC[C@H](CC(=O)NCc3ccc(Cl)cc3)O[C@H]1CO2`, the activity change, negative = inhibition was -0.708% (inactive).
Regarding `O=C(C[C@@H]1C=C[C@@H](NC(=O)Nc2cc(F)ccc2F)[C@@H](CO)O1)NCc1ccc2c(c1)OCO2`, the activity change, negative = inhibition is 2.62% (inactive).
The same measure, in the same setting: under `Cc1noc(C)c1NC(=O)Nc1ccc2c(c1)C(=O)N(C)[C@H]1CC[C@@H](CC(=O)NCc3ccc(Cl)cc3)O[C@@H]1CO2` stands -7.13% (inactive); under `O=C(C[C@@H]1C=C[C@H](NC(=O)Nc2cc(F)ccc2F)[C@H](CO)O1)NCc1ccc2c(c1)OCO2`, -1.22% (inactive).
On to `COCCNC(=O)C[C@@H]1C[C@@H]2c3cc(NC(=O)Nc4ccc(C(F)(F)F)cc4)ccc3O[C@@H]2[C@H](CO)O1`, for which the activity change, negative = inhibition is 6.32% (inactive).
With `Cc1noc(C)c1NC(=O)Nc1ccc2c(c1)C(=O)N(C)[C@H]1CC[C@H](CC(=O)NCc3ccc(Cl)cc3)O[C@H]1CO2`, the activity change, negative = inhibition was -5.96% (inactive).

The same test, now with this note: Mycobacterium tuberculosis non-replicating, growth inhibition plate reader; at 26 µM (top of the series).
On to `C[C@H](C(=O)N(C)C[C@H]1OCc2ccccc2-c2ccccc2C(=O)N([C@@H](C)CO)C[C@H]1C)c1ccccc1`, for which the activity change, negative = inhibition is -0.472% (inactive).
Take `C[C@H](C(=O)N(C)C[C@H]1OCc2ccccc2-c2ccccc2C(=O)N([C@@H](C)CO)C[C@@H]1C)c1ccccc1`: the activity change, negative = inhibition is -9.24% (inactive).
As for `CNC[C@@H]1OCCCC[C@@H](C)Oc2ccc(NC(=O)CCCN(C)C)cc2C(=O)N([C@H](C)CO)C[C@H]1C`, the activity change, negative = inhibition is -0.491% (inactive).
With `O=C(C[C@H]1C[C@H]2c3cc(NC(=O)c4cccnc4)ccc3O[C@H]2[C@@H](CO)O1)NCC(F)(F)F`, the activity change, negative = inhibition was 4.47% (inactive).
Regarding `O=C(C[C@H]1C=C[C@H](NC(=O)Nc2cc(F)ccc2F)[C@@H](CO)O1)NCc1ccc2c(c1)OCO2`, the activity change, negative = inhibition was -6.29% (inactive).
On the same count and under the same terms, under `COc1ccccc1C#Cc1ccc([C@@H]2[C@@H](C#N)N(C(=O)C3CC3)[C@@H]2CO)cc1` stands -12.4% (inactive); under `CNC[C@@H]1OCCCC[C@@H](C)Oc2ccc(NC(=O)CCCN(C)C)cc2C(=O)N([C@H](C)CO)C[C@@H]1C`, -5.36% (inactive).
Same read-out and setting: the value for `Cc1noc(C)c1NC(=O)Nc1ccc2c(c1)C(=O)N(C)[C@@H]1CC[C@H](CC(=O)NCc3ccc(Cl)cc3)O[C@@H]1CO2` was -6.75% (inactive); that for `COCCNC(=O)C[C@H]1C[C@H]2c3cc(NC(=O)Nc4ccc(C(F)(F)F)cc4)ccc3O[C@H]2[C@H](CO)O1` was 5.95% (inactive); that for `O=C(C[C@H]1C=C[C@@H](NC(=O)Nc2cc(F)ccc2F)[C@H](CO)O1)NCc1ccc2c(c1)OCO2` was -2.19% (inactive).
For the molecule `C[C@@H]1CN([C@@H](C)CO)C(=O)c2ccccc2-c2ccccc2CO[C@@H]1CN(C)C(=O)[C@H](C)c1ccccc1`, the activity change, negative = inhibition was 5.94% (inactive).
As for `O=C(C[C@H]1C=C[C@@H](NC(=O)Nc2cc(F)ccc2F)[C@@H](CO)O1)NCc1ccc2c(c1)OCO2`, the activity change, negative = inhibition is 4.07% (inactive).
With `COCCNC(=O)C[C@H]1C[C@H]2c3cc(NC(=O)Nc4ccc(C(F)(F)F)cc4)ccc3O[C@H]2[C@@H](CO)O1`, the activity change, negative = inhibition was 6.87% (inactive).
As to `Cc1noc(C)c1NC(=O)Nc1ccc2c(c1)C(=O)N(C)[C@@H]1CC[C@@H](CC(=O)NCc3ccc(Cl)cc3)O[C@@H]1CO2`, the activity change, negative = inhibition was -1.24% (inactive).
On to `C[C@@H]1CN([C@H](C)CO)C(=O)c2ccccc2-c2ccccc2CO[C@@H]1CN(C)C(=O)[C@H](C)c1ccccc1`, for which the activity change, negative = inhibition is -3.88% (inactive).
Same read-out and setting: under `COCCNC(=O)C[C@H]1C[C@@H]2c3cc(NC(=O)Nc4ccc(C(F)(F)F)cc4)ccc3O[C@@H]2[C@H](CO)O1` stands -0.81% (inactive); under `O=C(C[C@H]1C[C@@H]2c3cc(NC(=O)c4cccnc4)ccc3O[C@@H]2[C@@H](CO)O1)NCC(F)(F)F`, 2.49% (inactive); under `C[C@@H](C(=O)N(C)C[C@@H]1OCc2ccccc2-c2ccccc2C(=O)N([C@@H](C)CO)C[C@@H]1C)c1ccccc1`, 3.38% (inactive).
Same read-out and setting: the value for `C[C@@H](C(=O)N(C)C[C@H]1OCc2ccccc2-c2ccccc2C(=O)N([C@@H](C)CO)C[C@@H]1C)c1ccccc1` was -10.5% (inactive); that for `C[C@H](C(=O)N(C)C[C@H]1OCc2ccccc2-c2ccccc2C(=O)N([C@H](C)CO)C[C@@H]1C)c1ccccc1` was -6.85% (inactive); that for `O=C(C[C@@H]1C[C@H]2c3cc(NC(=O)c4cccnc4)ccc3O[C@H]2[C@H](CO)O1)NCC(F)(F)F` was 4.14% (inactive).
For `COCCNC(=O)C[C@H]1C[C@@H]2c3cc(NC(=O)Nc4ccc(C(F)(F)F)cc4)ccc3O[C@@H]2[C@@H](CO)O1`, the activity change, negative = inhibition is -5.53% (inactive).
`COCCNC(=O)C[C@@H]1C[C@H]2c3cc(NC(=O)Nc4ccc(C(F)(F)F)cc4)ccc3O[C@H]2[C@H](CO)O1`: the activity change, negative = inhibition is -6% (inactive).
With `O=C(C[C@H]1C=C[C@H](NC(=O)Nc2cc(F)ccc2F)[C@H](CO)O1)NCc1ccc2c(c1)OCO2`, the activity change, negative = inhibition was 2.59% (inactive).
Same read-out and setting: the value for `C[C@H](C(=O)N(C)C[C@H]1OCc2ccccc2-c2ccccc2C(=O)N([C@H](C)CO)C[C@H]1C)c1ccccc1` was -2.72% (inactive); that for `COCCNC(=O)C[C@@H]1C[C@H]2c3cc(NC(=O)Nc4ccc(C(F)(F)F)cc4)ccc3O[C@H]2[C@@H](CO)O1` was 2.69% (inactive); that for `CNC[C@@H]1OCCCC[C@@H](C)Oc2ccc(NC(=O)CCCN(C)C)cc2C(=O)N([C@@H](C)CO)C[C@H]1C` was 6.36% (inactive).
Still for that read-out and setting: under `CNC[C@H]1OCCCC[C@H](C)Oc2ccc(NC(=O)CCCN(C)C)cc2C(=O)N([C@H](C)CO)C[C@@H]1C` stands 0.293% (inactive); under `O=C(C[C@H]1C[C@H]2c3cc(NC(=O)c4cccnc4)ccc3O[C@H]2[C@H](CO)O1)NCC(F)(F)F`, 10.5% (inactive).
Take `O=C(C[C@@H]1C[C@@H]2c3cc(NC(=O)c4cccnc4)ccc3O[C@@H]2[C@H](CO)O1)NCC(F)(F)F`: the activity change, negative = inhibition is -0.328% (inactive).
The same measure, in the same setting: under `Cc1noc(C)c1NC(=O)Nc1ccc2c(c1)C(=O)N(C)[C@H]1CC[C@@H](CC(=O)NCc3ccc(Cl)cc3)O[C@H]1CO2` stands 0.473% (inactive); under `C[C@H](C(=O)N(C)C[C@@H]1OCc2ccccc2-c2ccccc2C(=O)N([C@H](C)CO)C[C@@H]1C)c1ccccc1`, -7.59% (inactive).
The same measure, in the same setting: the value for `C[C@H](C(=O)N(C)C[C@@H]1OCc2ccccc2-c2ccccc2C(=O)N([C@@H](C)CO)C[C@H]1C)c1ccccc1` was 1.76% (inactive).
The same measure, in the same setting: under `C[C@@H]1CN([C@H](C)CO)C(=O)c2ccccc2-c2ccccc2CO[C@H]1CN(C)C(=O)[C@H](C)c1ccccc1` stands 3.43% (inactive).
In the case of `CNC[C@H]1OCCCC[C@H](C)Oc2ccc(NC(=O)CCCN(C)C)cc2C(=O)N([C@@H](C)CO)C[C@@H]1C`, the activity change, negative = inhibition was -0.478% (inactive).
The same measure, in the same setting: the value for `O=C(C[C@@H]1C=C[C@H](NC(=O)Nc2cc(F)ccc2F)[C@@H](CO)O1)NCc1ccc2c(c1)OCO2` was -6.79% (inactive); that for `COc1ccccc1C#Cc1ccc([C@H]2[C@@H](C#N)N(C(=O)C3CC3)[C@@H]2CO)cc1` was -31.8% (inactive).
With `C[C@H](CO)N1C[C@H](C)[C@H](CN(C)C(=O)[C@H](C)c2ccccc2)OCc2ccccc2-c2ccccc2C1=O`, the activity change, negative = inhibition is -5.31% (inactive).
As for `O=C(C[C@@H]1C=C[C@@H](NC(=O)Nc2cc(F)ccc2F)[C@H](CO)O1)NCc1ccc2c(c1)OCO2`, the activity change, negative = inhibition is -1.51% (inactive).
Same read-out and setting: under `C[C@H](CO)N1C[C@H](C)[C@@H](CN(C)C(=O)[C@H](C)c2ccccc2)OCc2ccccc2-c2ccccc2C1=O` stands 4.38% (inactive).

Staying with this test, now noted: Mycobacterium tuberculosis non-replicating, growth inhibition plate reader; at 38 µM (top of the series).
Turning to `O=C(OCCCCN1C(=O)c2ccccc2C1=O)c1ccc(Br)o1`, the activity change, negative = inhibition was -2.9% (inactive).
Still for that read-out and setting: under `CCOC(=O)c1c(C)n(C)c2ccc(OC(C)C(=O)OC)cc12` (centres undefined) stands -6.52% (inactive); under `CC(=O)c1ccc(NC(=O)c2cc(CC(C)C)on2)cc1`, -14.7% (inactive).
For the molecule `C=CCn1c(NC(=O)c2ccccc2)nc2ccccc21`, the activity change, negative = inhibition was -76.7% (inactive).
Same read-out and setting: the value for `CCCC(C)C(=O)Nc1ccc(Cl)cn1` (centres undefined) was -14.4% (inactive); that for `NC(=O)COc1ccc2cc(-c3ccc(F)cc3)c(=O)oc2c1` was -7.91% (inactive).
Same read-out and setting: under `CCCOC(=O)c1ccc(NC(=O)c2ccc(Br)o2)cc1` stands -12.8% (inactive); under `O=C(OCc1ccc(Cl)c(Cl)c1)c1ccccn1`, -7.55% (inactive); under `Fc1ccc(-c2ccc(CNCc3ccccn3)o2)cc1Cl`, -52% (inactive).
